# From ChEMBL document CHEMBL3763055, “Evaluation of synthetic coumarins for antiausterity cytotoxicity against pancreatic cancers” (Bioorg Med Chem Lett, 2016)
# The source made the active and inactive calls. The rule behind the calls is not given here.
# Tests used:
# [1] = Antiausterity activity against human PANC1 cells under nutrient deprived condition assessed as reduction in cell viability incubated for 24 hrs by WST-8 assay; format: functional, PANC-1
# [2] = Cytotoxicity against human PANC1 cells in DMEM assessed as reduction in cell viability at 100 uM incubated for 24 hrs by WST-8 assay; format: cell-based; details: panc-1, 24 h
# PANC-1 = experiment: Induction of apoptosis in human PANC1 cells under nutrient deprived condition at 50 uM after 24 hrs by ethidium bromide/acridine orange staining based fluorescence microscopy; format: functional, cell-based
# [3] = Antiausterity activity against human MIAPaCa2 cells under nutrient deprived condition assessed as reduction in cell viability incubated for 24 hrs by WST-8 assay; format: functional, MIA PaCa-2
# [4] = Antiausterity activity against human Capan1 cells under nutrient deprived condition assessed as reduction in cell viability incubated for 24 hrs by WST-8 assay; format: functional, CAPAN-1
Structure (SMILES),PC50 [1],Activity [2],Activity (PANC-1),PC50 [3],PC50 [4]
CCCCCCCCOc1ccc2c(CC)cc(=O)oc2c1,29 µM,Non-toxic,–,–,–
CCCCCCCCOc1ccc2c(C)cc(=O)oc2c1C,>100 µM,Non-toxic,–,–,–
CC(C)(CC(=O)/C=C/c1cccc(C(F)(F)F)c1)C1Cc2c(ccc3ccc(=O)oc23)O1 (configuration not stated),0.079 µM,–,–,–,–
CCCCCCCCCCCCCCCCOc1ccc2c(C(F)(F)F)cc(=O)oc2c1C,>100 µM,Non-toxic,–,–,–
CCCCCCCCCCCCOc1ccc2c(CC)cc(=O)oc2c1,51 µM,Non-toxic,–,–,–
CC(C)c1ccc(Cn2cc(COc3ccc4ccc(=O)oc4c3)nn2)cc1,>100 µM,Non-toxic,–,–,–
CCCCCCCCCCCCOc1ccc2c(C)cc(=O)oc2c1,>100 µM,Non-toxic,–,–,–
Cc1cc(=O)oc2cc(OCC3CC3)ccc12,>100 µM,Non-toxic,–,–,–
CC(C)=CCC/C(C)=C/COc1cc2ccc(=O)oc2cc1O,7.2 µM,–,–,–,–
COc1ccc(Cn2cc(COc3ccc4ccc(=O)oc4c3)nn2)cc1,>100 µM,Non-toxic,–,–,–
CCCCCCCCn1cc(COc2ccc3ccc(=O)oc3c2)nn1,>100 µM,Non-toxic,–,–,–
CC(C)(CC(=O)/C=C/c1ccc(C(F)(F)F)cc1)C1Cc2c(ccc3ccc(=O)oc23)O1 (configuration not stated),0.023 µM,–,–,–,–
O=c1ccc2ccc(OCc3cn(Cc4cccc(C(F)(F)F)c4)nn3)cc2o1,29 µM,Non-toxic,Active,8.5 µM,18 µM
CCCCCCCCOc1ccc2c(C(F)(F)F)cc(=O)oc2c1,63 µM,Non-toxic,–,–,–
CCCCCCCCCCCCCCCCOc1ccc2c(C(F)(F)F)cc(=O)oc2c1,>100 µM,Non-toxic,–,–,–
CCCCCCCCCCCCOc1ccc2c(C(F)(F)F)cc(=O)oc2c1C,>100 µM,Non-toxic,–,–,–
CCCCCCCCOc1ccc2c(C)cc(=O)oc2c1,48 µM,Non-toxic,–,–,–
O=c1ccc2ccc(OCc3cn(Cc4ccc(C(F)(F)F)cc4)nn3)cc2o1,>100 µM,Non-toxic,–,9.6 µM,>100 µM
CCCCCCCCCCCCCCOc1ccc2c(C)cc(=O)oc2c1,>100 µM,Non-toxic,–,–,–
O=c1ccc2ccc(OCc3cn(Cc4ccccc4)nn3)cc2o1,>100 µM,Non-toxic,–,–,–
